In US11401255B2, “Small molecule activators of Parkin enzyme function” (Mayo Foundation for Medical Education and Research, priority 2016, dated 2022):
pEC50: −log10 of the molar value. Like-named read-outs stand apart in the source and are kept apart here.

Legend:
TA 1535 = test system: TA 1535
Source text: (§1) The test used amino acid-dependent strains of Salmonella typhimurium and Escherichia coli to detect point mutations which involved substitution, addition or deletion of one or a few DNA base pairs. Point mutations were introduced in the histidine (Salmonella typhimurium) or the tryptophan (Escherichia coli) operon, making the tester strains incapable of producing these amino acids. The test detected mutations that revert the mutations present in the bacteria, restoring the functional capability to synthesize histidine or tryptophan. The revertant bacteria were detected by the ability to grow in the absence of the amino acid required by the parent test strain. A mutagenic potential of a tested compound was assessed by exposing these bacterial strains to different concentrations of the compounds and estimating number of revertant colonies grown in the absence (trace quantities) of the amino acid.
(§2) DMSO was used as the negative control.
(§3) For each experiment, tester strain cultures were grown overnight in Oxoid nutrient broth #2 at 37° C. with shaking at 235 rpm to a density of 1-2×10^9 colony forming units/mL (OD540˜2).
(§4) The tester strain (10 μL of night culture) was mixed with the test agent (10 µL of the DMSO stock) and GM liquid medium (30 μL). The obtained mixture was incubated at room temperature for 5 min in a sterile 1.5 mL tube. Then, to the tube was added 200 μL of molten top agar stored at 44° C. to prevent solidifying. After mixing with a pipette, the mixture was poured onto the surface of a GM agar plate (2.0 mL of GM agar per plate). After solidifying the top agar, the plate was inverted and incubated at 37° C. for 48 hours. Then, results were expressed as number of revertant colonies per plate.

HeLa cells = assay: Mitochondrial membrane potential (JC-10 assay); type: cell-based, human; conditions: 5 μM, compared to DMSO control
Procedure: In order to exclude compounds that diminish the mitochondrial membrane potential, a JC-10 assay was used. HeLa cells were plated in 384-well plates and treated with different doses of CCCP or with 5 μM of Compounds 1, 2, 3, 4, and 31 as indicated for 2 h. The JC-10 dye was added to the live cells and cells are stained for 45 minutes. The plates were then measured with a fluorescent plate reader. JC-10 is a mitochondrial dye that emits red fluorescence in the presence of mitochondrial membrane potential. The fluorescence will change to green in the absence of mitochondrial membrane potential. […] Shown are average values of 3 independent experiments. Statistical analysis was performed by one-way ANOVA with Tukey's post-hoc test. ***, p<0.0005.
Mitochondrial depolarization was assessed using a JC10 assay kit (Sigma, MAK159). HeLa Parkin cells were seeded with […] in 20 μL volume into 384-well plates with clear bottom. The following day 5 μL of CCCP or compounds were added as 5× solutions. Equal volume of DMSO served as a negative control. Cells were incubated for 4 h before 12.5 μL of JC10 dye diluted in buffer A was added to the wells. One hour later the reaction was stopped with 12.5 μL of buffer B and the plate was measured immediately on a Spectramax M5 plate reader (Molecular devices) with bottom read using dual fluorescence (green: Ex 485 nm, Em 538 nm, cut-off at 515 nm; red: Ex 544 nm, Em 590 nm, cut-off at 570 nm). Mitochondrial depolarization was assessed by building the green to red ratio.

Parkin = Parkin (Homo sapiens (Human), UniProt O60260); assay: Primary HCI assay of EGFP-Parkin translocation to mitochondria; type: cell-based; conditions: for activity in EGFP-Parkin translocation to damaged mitochondria: 1 μM; for pEC50: primary assay screen, Parkin translocation to mitochondria
Sequence of Parkin (O60260 whole entry): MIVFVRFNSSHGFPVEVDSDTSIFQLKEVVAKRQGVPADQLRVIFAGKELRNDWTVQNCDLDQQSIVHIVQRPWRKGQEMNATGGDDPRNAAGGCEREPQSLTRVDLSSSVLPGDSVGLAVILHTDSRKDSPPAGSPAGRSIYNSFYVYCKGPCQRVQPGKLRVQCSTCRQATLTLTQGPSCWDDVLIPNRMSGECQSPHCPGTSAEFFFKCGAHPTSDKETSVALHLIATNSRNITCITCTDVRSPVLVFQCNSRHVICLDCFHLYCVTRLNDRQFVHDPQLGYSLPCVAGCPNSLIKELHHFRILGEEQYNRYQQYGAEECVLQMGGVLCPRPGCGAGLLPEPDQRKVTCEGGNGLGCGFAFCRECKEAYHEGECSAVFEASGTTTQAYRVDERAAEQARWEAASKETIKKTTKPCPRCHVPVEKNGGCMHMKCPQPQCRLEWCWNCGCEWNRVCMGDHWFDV
Procedure: GFP-Parkin is localized throughout the cell in unstressed cells but translocates to mitochondria when the mitochondrial membrane potential is compromised and Parkin is activated. After automated image acquisition of fixed cells, regions of interest of each cell were defined with the analysis software. […] To quantify the relocalization of GFP-Parkin to mitochondria, the ratio of the GFP intensity in the cytoplasm and the nucleus was calculated. Under non-stressed condition, this ratio is about 1. FIG. 1B is a bar graph showing the results of the assay with a Z factor (Z′) of 0.5-0.8, which indicates its robustness and usefulness as a screening assay. Validation of the assay has been performed by using PINK1 siRNA.
FIGS. 2A-2C show a primary HCI assay with CCCP titration. FIG. 2A is a graphic description of the primary HCI assay of EGFP-Parkin translocation. HeLa cells stably expressing GFP-Parkin were seeded with 1350 cells per well in 384-well plates (25 μL per well). Cells were allowed to attach overnight before drug was added 2× concentrated in a volume of 25 μL in triplicates. After 2 h, 50 μL of a 2× low-dose CCCP (yielding a final concentration of 3.5 μM CCCP) was added to all wells that contained test compounds and for the negative control. For positive control wells, CCCP was added in a final concentration of 10 μM. After 2 h incubation with CCCP, cells were fixed and labeled with Hoechst for at least 1 h before cells were imaged. […] Values were being normalized to negative and positive control values and plotted as % activity. Z′ was calculated for quality control. Positive controls were indicated in green, negative control wells in red. Drugs that lead to more than 50% activity are considered positive (blue).
Functional testing of compounds was performed using an established primary HCI assay for Parkin translocation, which correlates well with enzymatic activation (Fiesel et al., J. Cell Science (2014) 127:3488-3504; Fiesel et al., Human Mutation (2015) 36:774-786). In brief, 1400 HeLa cells stably expressing EGFP-Parkin were seeded into optical 384-well plates (Greiner BioOne) in 25 μL media and allowed to adhere for 40 h. Compounds 1, 2, 3, 4, and 31 were added to the plate as 2× concentrated stocks. Control wells were treated with equal volume of DMSO in media. After 2 h, unless otherwise stated, CCCP was added as 2× concentrated stock with a final assay concentration of 10 μM for PC wells and 3.5 μM for test and NC wells. This low dose of CCCP was experimentally determined by a dose response curve of CCCP to result in no Parkin translocation (FIG. 13). After another 2 h, cells were fixed in 4% paraformaldehyde for 10 min and stained with Hoechst 33342 (1:5000, Invitrogen) before plates were imaged and analyzed.
Image acquisition was performed on a BD Pathway 855 with the Attovision V1.6 software (BD Biosciences). Wells were imaged with a 20× objective using a 2×2 montage with laser autofocus. EGFP exposure time was 0.0175 sec, Hoechst 0.0015 sec. Raw images were not processed and directly analyzed using a build-in ‘RING—2 output’ algorithm. Values were exported and normalized using JMP 11 software and transferred to GraphPad Prism 7 for quality control, graphing and curve fitting for DRCs with a variable slope using four parameters. […] Values were normalized to both PC and NC values from 24 wells each per plate and the Z′ score was calculated. Plates with Z′<0.5 were repeated.

TA 98 = assay: Ames Test, strain TA 98
Source text: as §1, §2, §3, §4

[1] = TA 98, 200 μM, baseline = mean of negative control + SD

SMILES | Fold increase (over baseline) (TA 1535; TA 1535, 50 μM) | Mean ± SD (TA 1535; TA 1535, 50 μM) | Fold increase (over baseline) (TA 1535; TA 1535, 100 μM) | Mean ± SD (TA 1535; TA 1535, 100 μM) | Fold increase (over baseline) (TA 1535; TA 1535, 200 μM) | Mean ± SD (TA 1535; TA 1535, 200 μM) | effect on JC-10 (mitochondrial depolarization) (HeLa cells) | activity in EGFP-Parkin translocation to damaged mitochondria (Parkin) | pEC50 (Parkin) | Fold increase (over baseline) (TA 98; TA 98, 50 μM) | Mean ± SD (TA 98; TA 98, 50 μM) | Fold increase (over baseline) (TA 98; TA 98, 100 μM) | Mean ± SD (TA 98; TA 98, 100 μM) | Mean ± SD (TA 98; TA 98, 200 μM) | Fold increase (over baseline) (TA 98; [1]) | mutagenic activity (TA 1535; TA 1535, 200 μM) | mutagenic activity (TA 98; TA 98, 200 μM)
O=C(Cn1cnc2c1CCCC2)Nc1ccc(-c2ccccc2)cc1 [Compound 1] | 0.23 | 1 ± 0 revertant colonies per plate | 0 | 0 ± 0 revertant colonies per plate | 0 | 0 ± 0 revertant colonies per plate | did not show an effect | showed activity | 6.43 | 0.46 | 1.5 ± 0.7 revertant colonies per plate | 0.2 | 0.5 ± 0.7 revertant colonies per plate | 0 ± 0 revertant colonies per plate | 0 | – | –
CC(C)c1nccn1CC(=O)Nc1ccc(-c2ccccc2)cc1 [Compound 2] | 0 | 0 ± 0 revertant colonies per plate | 0.68 | 3 ± 0 revertant colonies per plate | 0.23 | 1 ± 0 revertant colonies per plate | did not show an effect | showed activity | 6.26 | 0.3 | 1 ± 1.41 revertant colonies per plate | 0.2 | 0.5 ± 0.7 revertant colonies per plate | 0.5 ± 0.7 revertant colonies per plate | 0.2 | – | –
CC(C)(C)Sc1ccc(NC(=O)Cn2ccnc2)cc1 [Compound 3] | 0.34 | 1.5 ± 0.7 revertant colonies per plate | 0 | 0 ± 0 revertant colonies per plate | >34 | >150 revertant colonies per plate | did not show an effect | showed activity | 6.39 | 0.46 | 1.5 ± 0.7 revertant colonies per plate | 0.2 | 0.5 ± 0.7 revertant colonies per plate | >1000 revertant colonies per plate | >312 | mutagenic activity | mutagenic activity
O=C(Cn1ccnc1-c1ccccn1)Nc1ccc(-c2ccccc2)cc1 [Compound 4] | 0.23 | 1 ± 0 revertant colonies per plate | 0.34 | 1.5 ± 0.7 revertant colonies per plate | 0 | 0 ± 0 revertant colonies per plate | did not show an effect | showed activity | 6.79 | 0.46 | 1.5 ± 0.7 revertant colonies per plate | 0 | 0 ± 0 revertant colonies per plate | 0 ± 0 revertant colonies per plate | 0 | – | –
Cc1nc2c(c(N3CCCN(Cc4ccccc4)CC3)n1)CCCC2 [Compound 31] | 0.57 | 2.5 ± 2.12 revertant colonies per plate | 0.23 | 1 ± 0 revertant colonies per plate | 0.57 | 2.5 ± 0.7 revertant colonies per plate | significantly increased depolarization of mitochondria | showed activity | 6.00 | 0.2 | 0.5 ± 0.7 revertant colonies per plate | 0.3 | 1 ± 0 revertant colonies per plate | 1 ± 1.41 revertant colonies per plate | 0.3 | – | –
